Test results taken from patent publication US20230250123A1, “GUT MICROBIOTA BIOACTIVATED PDE4 INHIBITOR PRECURSORS” (Giiant Pharma Inc., priority 2020, published 2023).

What was measured:
[1] = system: β-D-glucuronidase; experiment: Positive control: incubation with β-D-glucuronidase in phosphate buffer; assay type: in vitro ADME; conditions: β-D-glucuronidase 50U/mL, phosphate buffer pH 6.5, 37° C., 24 hours
[2] = In vitro rate of glycoside prodrug hydrolysis in feces supernatant, dog; assay type: in vitro ADME; conditions: 100 µM, 37° C., pH 6.5, 24 hr
Procedure: In vitro rate of glycoside prodrugs hydrolysis. The metabolic stability of prodrug candidates to release the parent PDE4 inhibitor could be assessed in vitro according, but not restricted, to the following protocol: feces were collected overnight on a mixture of dry and wet ice in a metabolic cage. Ten volumes (v/w; 30 mL) of 100 mM phosphate buffer (pH 6.5) were added to 3 g of freshly collected rodent feces. The mixture was homogenized with a Stomacher Circulator 400 (2 × 1 min-cycles at 225 rpm). The mixture was transferred to a 50 mL tubes, centrifuged at 10 000xg for 10 min (4° C.) and the supernatant was passed through a 0.45 µm-filter. In a 96 deep-well plate, 198 µL of feces supernatant were aliquoted in 2 wells per compound. Each compound, including positive control, was tested in duplicate. Then 2 µL of 10 mM stock solution of each test compound were spiked in individual wells (duplicate) at a final concentration of 100 µM and samples were sealed and mixed 30 sec at 1000 rpm using a vortexer. Samples were incubated at 37° C. for the desired time in the Thermomixer with constant agitation (300 rpm). […] All samples, including analytical standards, were analyzed by LC-MS/MS to measure the concentration of the parent PDE4 inhibitor released and the concentration of the corresponding prodrug remaining. […]

[3] = Bidirectional Caco-2 permeability assay; assay type: in vitro ADME; conditions: human; Caco-2, 10 µM, apical pH 6.0 / basolateral pH 7.4, average of 2 determinations
Procedure: In vitro glycoside prodrug permeability assessment. The permeability of the glycoside prodrugs were measured using the bidirectional Caco-2 assay. Caco-2 cells were seeded onto permeable polycarbonate supports in 12-well Costar Transwell plates and allowed to grow and differentiate for 21-25 days. On day 24, culture medium (DMEM supplemented with 10% FBS, 1% non-essential amino acids and penicillin/streptomycin) was removed from both sides of the transwell inserts and cells were rinsed with warm HBSS. […] The buffer in the donor chamber (apical side for A-to-B assay, basolateral side for B-to-A assay) was removed and replaced with the working solution (10 µM test article in transport buffer). The plates were then placed at 37° C. under light agitation. At designated time points (30, 60 and 90 min); an aliquot of transport buffer from the receiver chamber was removed and replenished with fresh transport buffer. Samples were quenched with ice-cold CH3CN containing internal standard and then centrifuged to precipitate the protein. Resulting supernatants were further diluted with 50/50 ACN/H2O (H2O only for Atenolol) and submitted for LC/MS/MS analysis. […] Atenolol and propranolol were tested as low and […] permeability references. […] The apparent permeability (Papp, measured in cm/s) of a compound is determined according to the following formula: […]
Where dQ/dt is the net rate of appearance in the receiver compartment, A is the area of the Transwell measured in cm^2 (1.12 cm^2), C0 is the initial concentration of compound added to the donor chamber and 60 is the conversion factor for the minute to second.

[4] = In vitro rate of glycoside prodrug hydrolysis in feces supernatant, mouse; assay type: in vitro ADME; conditions: 100 µM, 37° C., pH 6.5, 24 hr
Procedure: (§1) In vitro rate of glycoside prodrugs hydrolysis. The metabolic stability of prodrug candidates to release the parent PDE4 inhibitor could be assessed in vitro according, but not restricted, to the following protocol: feces were collected overnight on a mixture of dry and wet ice in a metabolic cage. Ten volumes (v/w; 30 mL) of 100 mM phosphate buffer (pH 6.5) were added to 3 g of freshly collected rodent feces. The mixture was homogenized with a Stomacher Circulator 400 (2 × 1 min-cycles at 225 rpm). The mixture was transferred to a 50 mL tubes, centrifuged at 10 000xg for 10 min (4° C.) and the supernatant was passed through a 0.45 µm-filter. In a 96 deep-well plate, 198 µL of feces supernatant were aliquoted in 2 wells per compound. Each compound, including positive control, was tested in duplicate. Then 2 µL of 10 mM stock solution of each test compound were spiked in individual wells (duplicate) at a final concentration of 100 µM and samples were sealed and mixed 30 sec at 1000 rpm using a vortexer. Samples were incubated at 37° C. for the desired time in the Thermomixer with constant agitation (300 rpm). At desired time-point, 25 µL of reaction mixture was added to 225 µL of ice-cold quenching solution (acetonitrile + 0.1% (v/v) formic acid) to stop the bacterial enzymatic activity. The quenched incubates were mixed and centrifuged 10 min at 21 000xg at 4° C. A real t0 (no metabolism, 100% total recovery of unchanged prodrug) was generated by adding 22.5 µL of feces supernatant to 225 µL of ice-cold quenching solution (acetonitrile + 0.1% (v/v) formic acid). Then 2.5 µL of 1 mM solution of each test compounds was added, sealed, mixed thoroughly and centrifuged 10 min at 21 000xg at 4° C. All samples, including analytical standards, were analyzed by LC-MS/MS to measure the concentration of the parent PDE4 inhibitor released and the concentration of the corresponding prodrug remaining. A set criteria of 100% recovery is targeted where the summation of the % of prodrug remaining and the % of parent PDE4 inhibitor released should be 100% with an experimental error tolerance of ± 20%. When prodrugs represented by Formula (I) were incubated 24 hours under the conditions described above using mouse, rat and dog feces, the glycoside prodrugs were hydrolyzed to release the corresponding parent PDE4 inhibitor III (Table 3). As a negative control, when compound 4, 10 and 21 were incubated 24 hours under the conditions described above but in the absence of enzyme activities, using mouse feces extract supernatant inactivated by boiling the supernatant 10 minutes, 100% of the prodrugs were recovered unchanged.

[5] = In vivo glycoside prodrug bioactivation, oral dosing to C57BI/6 mice; conditions: labrasol/5%dextrose solution, over 48 hours
[6] = Negative control: incubation in mouse feces extract supernatant inactivated by boiling; assay type: in vitro ADME; conditions: 24 hours, mouse feces supernatant boiled 10 minutes (no enzyme activities)
Procedure: as §1, with “A set criteria of 100% recovery is targeted where the summation of the % of prodrug remaining and the % of parent PDE4 inhibitor released should be 100% with an experimental error tolerance of ± 20%. When prodrugs represented by Formula (I) were incubated 24 hours under the conditions described above using mouse, rat and dog feces, the glycoside prodrugs were hydrolyzed to release the corresponding parent PDE4 inhibitor III (Table 3). As a negative control, when compound 4, 10 and 21 were incubated 24 hours under the conditions described above but in the absence of enzyme activities, using mouse feces extract supernatant inactivated by boiling the supernatant 10 minutes, 100% of the prodrugs were recovered unchanged.” left out

[7] = In vivo glycoside prodrug bioactivation, oral dosing to rats
[8] = In vitro rate of glycoside prodrug hydrolysis in feces supernatant, rat; assay type: in vitro ADME; conditions: 100 µM, 37° C., pH 6.5, 24 hr
Procedure: as §1

[9] = system: LPS-induced TNFα in human whole blood; experiment: LPS-induced TNFα assay in human whole blood; assay type: cell-based; conditions: human whole blood from 12 healthy volunteers, LPS 1 µg/mL, 24 h; read-out: average IC50, TNFα inhibition
[10] = in vivo; conditions: C57BI/6, mouse, po
[11] = target: PDE4B1 (Homo sapiens, UniProt Q07343); experiment: Inhibitory potency against PDE4 isozymes (FAM-cAMP fluorescence polarization), PDE4B1
[12] = target: PDE4D2 (Homo sapiens, UniProt Q08499); experiment: Inhibitory potency against PDE4 isozymes (FAM-cAMP fluorescence polarization), PDE4D2
Sequence of PDE4D2 (Q08499 303-809 limits assumed): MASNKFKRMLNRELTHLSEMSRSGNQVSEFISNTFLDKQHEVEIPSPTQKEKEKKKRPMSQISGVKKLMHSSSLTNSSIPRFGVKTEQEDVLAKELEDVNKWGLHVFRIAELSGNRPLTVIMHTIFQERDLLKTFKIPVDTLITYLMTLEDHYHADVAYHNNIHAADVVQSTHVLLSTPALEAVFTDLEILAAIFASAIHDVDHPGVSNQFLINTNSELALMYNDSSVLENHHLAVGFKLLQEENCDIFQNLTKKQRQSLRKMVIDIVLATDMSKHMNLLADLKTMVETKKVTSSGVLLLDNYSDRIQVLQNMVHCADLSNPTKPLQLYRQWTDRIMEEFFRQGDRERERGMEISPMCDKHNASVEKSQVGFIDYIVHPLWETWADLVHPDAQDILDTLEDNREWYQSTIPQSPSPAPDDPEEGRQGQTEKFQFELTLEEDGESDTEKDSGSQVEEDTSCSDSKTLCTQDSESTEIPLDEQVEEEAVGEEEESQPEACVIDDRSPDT

Sequence of PDE4B1 (Q07343 whole entry, species assumed): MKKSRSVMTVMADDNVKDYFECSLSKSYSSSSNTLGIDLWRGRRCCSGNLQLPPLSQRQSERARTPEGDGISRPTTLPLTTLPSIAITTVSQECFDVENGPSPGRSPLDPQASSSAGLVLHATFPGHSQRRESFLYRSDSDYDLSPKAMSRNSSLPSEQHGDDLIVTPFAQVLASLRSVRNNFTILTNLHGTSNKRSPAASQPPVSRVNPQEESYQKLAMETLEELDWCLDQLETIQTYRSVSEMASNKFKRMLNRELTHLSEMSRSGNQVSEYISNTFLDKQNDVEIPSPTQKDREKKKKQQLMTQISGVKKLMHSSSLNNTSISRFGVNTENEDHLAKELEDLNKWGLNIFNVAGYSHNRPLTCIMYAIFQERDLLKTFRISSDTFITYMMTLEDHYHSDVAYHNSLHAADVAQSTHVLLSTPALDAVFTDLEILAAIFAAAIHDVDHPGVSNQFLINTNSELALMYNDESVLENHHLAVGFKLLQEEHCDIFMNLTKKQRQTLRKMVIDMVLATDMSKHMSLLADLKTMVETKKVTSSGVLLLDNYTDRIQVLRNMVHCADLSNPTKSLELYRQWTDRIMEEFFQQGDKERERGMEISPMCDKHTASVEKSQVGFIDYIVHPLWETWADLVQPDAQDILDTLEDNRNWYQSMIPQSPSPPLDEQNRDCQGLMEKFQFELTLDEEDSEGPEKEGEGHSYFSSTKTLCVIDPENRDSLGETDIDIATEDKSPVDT

prodrug recovered unchanged [1] [%] | Prodrug Remaining @ 24 hr (%) [2] [%] | Papp A→B at 10 µM [3] [×10⁻⁶ cm/s] | Prodrug Remaining @ 24 hr (%) [4] [%] | unchanged prodrug detected in excreted feces [5] | prodrug recovered unchanged [6] [%] | extent of prodrug bioactivation (ratio of parent IIIb over residual prodrug 10 in excreted feces) ([7]; oral, aqueous suspension, over 24 hours) [%] | Prodrug Remaining @ 24 hr (%) [8] [%] | Compound | IC50 [9] [nM] | Kp [10] | IC50 [11] [nM] | IC50 [12] [nM] | time before which released IIIb was not detected in blood ([7]; compound 10 orally as aqueous suspension) [h]
64 | 67 | 0.3 | 74 | only trace amount | 100 | 96 | 47 | COC(=O)[C@H]1O[C@@H](Oc2ccc(C[C@H](c3ccc(C(C)(C)O)nc3)c3ccc(OC(F)F)c(OC4CC4)c3)cn2)[C@H](O)[C@@H](O)[C@@H]1O [Compound 10, (2S,3S,4S,5R,6S)-methyl 6-((5-((S)-2-(3-cyclopropoxy-4-(difluoromethoxy)phenyl)-2-(6-(2-hydroxypropan-2-yl)pyridin-3-yl)ethyl)pyridin-2-yl)oxy)-3,4,5-trihydroxytetrahydro-2H-pyran-2-carboxylate] | – | – | – | – | –
– | – | – | – | – | – | – | – | CC(C)(O)c1ccc([C@@H](Cc2ccc(=O)[nH]c2)c2ccc(OC(F)F)c(OC3CC3)c2)cn1 [IIIb, (S)-5-(2-(3-cyclopropoxy-4-(difluoromethoxy)phenyl)-2-(6-(2-hydroxypropan-2-yl)pyridin-3-yl)ethyl)pyridin-2(1H)-one] | < 50 | 200 | < 10 | < 10 | ≥ 2
